Experimental data published in patent US20200231912A1, “USE OF STEVIOL GLYCOSIDE IN MALTING” (Corn Products Development, Inc., priority 2017, published 2020).

Tested on: two row barley
Test: Malting trials: overall malt quality against defined specifications
Conditions: Example 2; inferred from content in compositions A-E and Table 6
Procedure: Cereal grain malting trials were performed according to the methods described herein to compare Control malts # 1, 2 and 3 with Test malts # 1, 2, 3, 4 and 5, where steviol glycosides were added at the following rates: • Test 1: 0.00019 kg per 1 metric ton of unmalted barley; • Test 2: 0.00013 kg per 1 metric ton of unmalted barley; • Test 3: 0.00024 kg per 1 metric ton of unmalted barley; • Test 4: 0.00070 kg per 1 metric ton of unmalted barley; • Test 5: 0.00043 kg per 1 metric ton of unmalted barley; The steviol glycosides were added at the beginning of the germination process, prior to kilning. Table 5 illustrates the weight percent ranges of each steviol glycoside in a mixture of steviol glycosides.
Control malts # 1, 2 and 3 and Test malts # 1, 2, 3, 4 and 5 were prepared as follows. The general process is illustrated in FIG. 10.
Control Malt # 1 was produced according to the steeping process described in FIG. 10, which was performed in flat bottomed steep vessel, adding 400 kg of 100% two row barley having a 10% moisture content to water. The steeping process included three steeping steps, including a steeping step which was conducted for 1:15 hours and followed by a drying step which was aeration at 19-21° C. during 6 hours. The steeping step was repeated two times. When the steeping degree of the cereal grains measured ≥42%, the water was drained off in preparation for germination. Steviol glycosides and/or gibberellic acid were not added during Control Malt # 1 production.
The germinating step of Control Malt # 1 is described in FIG. 10, which occurred in a typical rectangular germination box (e.g., unit type Saladin) for 5.5 days. The ventilation air temperature during the germinating step was 15-18° C. from the first until the third germination day, followed by ventilation air temperature of 11-15° C. from the third until the last germination day, and the moisture content was 43-47%. The malt turning procedures, which provide the mixing for the germinating kernels, were used first after 24 hours of germination and second after 48 hours of germination. Once the germination time achieved the expected value for Control Malt # 1, the kernels were kilned.
The kilning step is then described in FIG. 10 as using a single floor kiln with gas heating. The kernels were heated for 16:30 hours using hot air from 55-70° C., then for 5 hours using hot air at 80° C. […] The malt was cleaned by removing the rootlets using a malt deculming screw, and the cleaned malt was packaged into 25 kilogram bags.

| effect on proteolytic enzymes activity and protein breakdown | Molecule | impact on stimulation of barley germination |
| --- | --- | --- |
|  | C=C1C[C@@]23CC[C@H]4[C@@](C)(CCC[C@@]4(C)C(=O)O[C@@H]4O[C@H](CO)[C@@H](O)[C@H](O)[C@H]4O)[C@@H]2CC[C@]1(O[C@@H]1O[C@H](CO)[C@@H](O)[C@H](O)[C@H]1O[C@@H]1O[C@@H](C)[C@H](O)[C@@H](O)[C@H]1O)C3 [Dulcoside A] | negative impact |
| appears to have an effect | C=C1C[C@@]23CC[C@H]4[C@@](C)(CCC[C@@]4(C)C(=O)O[C@@H]4O[C@H](CO)[C@@H](O)[C@H](O)[C@H]4O)[C@@H]2CC[C@]1(O[C@@H]1O[C@H](CO)[C@@H](O)[C@H](O[C@@H]2O[C@H](CO)[C@@H](O)[C@H](O)[C@H]2O)[C@H]1O[C@@H]1O[C@H](CO)[C@@H](O)[C@H](O)[C@H]1O)C3 [Rebaudioside A] | positive impact |
|  | C=C1C[C@@]23CC[C@H]4[C@@](C)(CCC[C@@]4(C)C(=O)O[C@@H]4O[C@H](CO)[C@@H](O)[C@H](O)[C@H]4O[C@@H]4O[C@H](CO)[C@@H](O)[C@H](O)[C@H]4O)[C@@H]2CC[C@]1(O[C@@H]1O[C@H](CO)[C@@H](O)[C@H](O[C@@H]2O[C@H](CO)[C@@H](O)[C@H](O)[C@H]2O)[C@H]1O[C@@H]1O[C@H](CO)[C@@H](O)[C@H](O)[C@H]1O)C3 [Rebaudioside D] | do not seem to play a significant role |
|  | C=C1C[C@@]23CC[C@H]4[C@@](C)(CCC[C@@]4(C)C(=O)O[C@@H]4O[C@H](CO)[C@@H](O)[C@H](O)[C@H]4O)[C@@H]2CC[C@]1(O[C@@H]1O[C@H](CO)[C@@H](O)[C@H](O)[C@H]1O)C3 [Rubusoside] | do not seem to play a significant role |
|  | C=C1C[C@@]23CC[C@H]4[C@@](C)(CCC[C@@]4(C)C(=O)O)[C@@H]2CC[C@]1(O[C@@H]1O[C@H](CO)[C@@H](O)[C@H](O)[C@H]1O[C@@H]1O[C@H](CO)[C@@H](O)[C@H](O)[C@H]1O)C3 [Steviolbioside] | do not seem to play a significant role |
|  | C=C1C[C@@]23CC[C@H]4[C@@](C)(CCC[C@@]4(C)C(=O)O[C@@H]4O[C@H](CO)[C@@H](O)[C@H](O)[C@H]4O)[C@@H]2CC[C@]1(O[C@@H]1O[C@H](CO)[C@@H](O)[C@H](O)[C@H]1O[C@@H]1O[C@H](CO)[C@@H](O)[C@H](O)[C@H]1O)C3 [Stevioside] | do not seem to play a significant role |
|  | Rebaudioside B | seems to impact barley germination at certain content ranges |
|  | Rebaudioside C | positive impact |
|  | Rebaudioside F | seems to impact barley germination at certain content ranges |

Tested on: two row barley
Test: Germination rate assay
Type: in vivo
Conditions: Example 2; 4.5 days germination; % printed
Procedure: The Germination rate assay informs the percentage of germinated kernels during malting. One hundred barley grains are placed inside each one of four Petri plates containing 4mL of distilled water in a paper filter. The number of germinated kernels is measured after 24, 48 and 72 hours respectively. The germination rate is defined comparing the number of germinated kernels at 24, 48 and 72 h with total number of kernels (400). Typical result for Germination rate analysis is minimum 95%.

| Molecule | Germination rate [%] |
| --- | --- |
| C=C1C[C@]23C[C@@]1(O)CC[C@H]2[C@@]12C=C[C@H](O)[C@@](C)(C(=O)O1)[C@H]2[C@@H]3C(=O)O [Control 3, Gibberellic acid] | 90 |

Tested on: two row barley
Test: Huzzar rate assay
Type: in vivo
Conditions: Example 2; 4.5 days germination; % printed
Excerpt: The Huzzar rate assay informs the ratio of cereal kernels in which the acrospires have emerged from end of grains. A range of devices have been used as measuring aids having magnifying lenses and ruled scales with diverging lines that are arranged over the grain with the base and tip at the “0” and “1” lines and then divide the grain length into ¼, ½, ⅔, ¾, 1 and 1+ or overgrown. The results may be expressed as an average value. Typical result for Huzzar rate analysis is maximum 3%.

| Molecule | Huzzar rate [%] |
| --- | --- |
| C=C1C[C@]23C[C@@]1(O)CC[C@H]2[C@@]12C=C[C@H](O)[C@@](C)(C(=O)O1)[C@H]2[C@@H]3C(=O)O [Control 3, Gibberellic acid] | 5 |
